Experimental data from publication PMC10830635, “In vitro cytotoxicity of Withania somnifera (L.) roots and fruits on oral squamous cell carcinoma cell lines: a study supported by flow cytometry, spectral, and computational investigations” (Frontiers in Pharmacology, 2024).
Read-outs that look alike come from different tables or passages of the source. *1 amine or outer side, *2 acyl side, *3 side chain or, on linkers, in order; H or OH if unused. Where a SMILES comes first, the peptide text is derived from it. Bridges are numbered along the chain shown (N, C = ends). Roman numbers before positions name the chains, in order. [ ]: non-standard residue; d: D form. Actinocin(9to1) = Cc1c2oc3c(C)ccc(C(=O)[*:1])c3nc-2c(C(=O)[*:2])c(N)c1=O; NMeV = CN[C@H](C(=O)O)C(C)C; Sar = CNCC(=O)O

Assays:
[1] = MTT cytotoxicity assay, HGF; type: cell-based; conditions: human, normal gingival fibroblasts (HGF), normal cells, 2 days exposure
Experimental: (§1) The cancer cell lines (HSC-2, HSC-3, HSC-4), as well as the normal cells (HGF, HPLF, and HPC), were cultured at 37°C in a humidified 5% CO2 incubator in DMEM medium enriched with streptomycin sulphate (100 μg/mL), 10% heat-inactivated FBS, and penicillin G (100 units/mL). For cytotoxicity testing, cells were then garnered using 0.25% trypsin–0.025% sodium edetate in a phosphate-buffered saline lacking Ca^2+/Mg^2+ [PBS (−)]. The cells were cultured in 96-well microplates at a cell count of 3 ×10^3 cells/100 μL. After 2 days, the exhausted medium was replaced with fresh medium containing the different concentrations of sample to be tested, in triplicate. The initial sample concentration was set at 5 mg/mL in DMSO. The first concentration examined was thus 500 μg/mL, which was then successively diluted 2-fold. In the wells assigned for control, equal volumes of the DMSO were added to the cells, where the toxic effects of DMSO could be subtracted. The cell growth in the incubator was continued for another 2 days. To determine the cell viability, the colorimetric MTT method was employed as described in our preceding article ([Orabi et al., 2021]). The concentration of cytotoxicity 50% (CC50) was determined from the dose-response curve. The mean CC50 value for each type of cell was calculated from triplicate assays ([Kantoh et al., 2010]).

[2] = tested on: HSC-2 (human squamous carcinoma, derived from tongue); assay: MTT cytotoxicity assay, HSC-2; type: cell-based; conditions: HSC-2, 48 h, read-out: CC50 HSC-2
Experimental: as §1

[3] = MTT cytotoxicity assay, HPC; type: cell-based; conditions: human, normal pulp cells (HPC), 2 days exposure
Experimental: For cytotoxicity testing, cells were then garnered using 0.25% trypsin–0.025% sodium edetate in a phosphate-buffered saline lacking Ca^2+/Mg^2+ [PBS (−)]. The cells were cultured in 96-well microplates at a cell count of 3 ×10^3 cells/100 μL. After 2 days, the exhausted medium was replaced with fresh medium containing the different concentrations of sample to be tested, in triplicate. The initial sample concentration was set at 5 mg/mL in DMSO. The first concentration examined was thus 500 μg/mL, which was then successively diluted 2-fold. In the wells assigned for control, equal volumes of the DMSO were added to the cells, where the toxic effects of DMSO could be subtracted. The cell growth in the incubator was continued for another 2 days. To determine the cell viability, the colorimetric MTT method was employed as described in our preceding article ([Orabi et al., 2021]). The concentration of cytotoxicity 50% (CC50) was determined from the dose-response curve. The mean CC50 value for each type of cell was calculated from triplicate assays ([Kantoh et al., 2010]). The changes in cell morphology were detected using light microscopy (EVOSfl; ThermoFisher Scientific, Waltham, MA, United States).

[4] = tested on: HSC-4 (human squamous carcinoma, derived from tongue); assay: MTT cytotoxicity assay, HSC-4; type: cell-based; conditions: HSC-4, 48 h, read-out: CC50 HSC-4
Experimental: as §1

[5] = tested on: HSC-3 (human squamous carcinoma, derived from tongue); assay: MTT cytotoxicity assay, HSC-3; type: cell-based; conditions: HSC-3, 48 h, read-out: CC50 HSC-3
Experimental: as §1

[6] = MTT cytotoxicity assay, normal oral cells together (mean); type: cell-based; conditions: human; mean of HGF, HPLF, HPC; read-out: CC50 Mean (D), human normal oral cells
Experimental: The cancer cell lines (HSC-2, HSC-3, HSC-4), as well as the normal cells (HGF, HPLF, and HPC), were cultured at 37°C in a humidified 5% CO2 incubator in DMEM medium enriched with streptomycin sulphate (100 μg/mL), 10% heat-inactivated FBS, and penicillin G (100 units/mL). For cytotoxicity testing, cells were then garnered using 0.25% trypsin–0.025% sodium edetate in a phosphate-buffered saline lacking Ca^2+/Mg^2+ [PBS (−)]. The cells were cultured in 96-well microplates at a cell count of 3 ×10^3 cells/100 μL. After 2 days, the exhausted medium was replaced with fresh medium containing the different concentrations of sample to be tested, in triplicate. The initial sample concentration was set at 5 mg/mL in DMSO. The first concentration examined was thus 500 μg/mL, which was then successively diluted 2-fold. In the wells assigned for control, equal volumes of the DMSO were added to the cells, where the toxic effects of DMSO could be subtracted. The cell growth in the incubator was continued for another 2 days. […] The concentration of cytotoxicity 50% (CC50) was determined from the dose-response curve.

[7] = MTT cytotoxicity assay, HPLF; type: cell-based; conditions: human, normal periodontal ligament fibroblasts (HPLF), normal cells, 2 days exposure
Experimental: as §1

[8] = tested on: OSCC cell lines (Ca9-22 + HSC-2 + HSC-3 + HSC-4); assay: MTT cytotoxicity assay, OSCC cell lines together (mean, TS, PSE); conditions: for CC50: Homo sapiens, read-out: CC50 Mean (B), human oral squamous cell carcinoma cell lines; for Type of growth inhibition (cytotoxic or cytostatic) from dose-response curve: OSCC cell lines and normal oral cells, Figure 1
Experimental: (§2) The cancer cell lines (HSC-2, HSC-3, HSC-4), as well as the normal cells (HGF, HPLF, and HPC), were cultured at 37°C in a humidified 5% CO2 incubator in DMEM medium enriched with streptomycin sulphate (100 μg/mL), 10% heat-inactivated FBS, and penicillin G (100 units/mL). For cytotoxicity testing, cells were then garnered using 0.25% trypsin–0.025% sodium edetate in a phosphate-buffered saline lacking Ca^2+/Mg^2+ [PBS (−)]. The cells were cultured in 96-well microplates at a cell count of 3 ×10^3 cells/100 μL. After 2 days, the exhausted medium was replaced with fresh medium containing the different concentrations of sample to be tested, in triplicate. The initial sample concentration was set at 5 mg/mL in DMSO. The first concentration examined was thus 500 μg/mL, which was then successively diluted 2-fold. In the wells assigned for control, equal volumes of the DMSO were added to the cells, where the toxic effects of DMSO could be subtracted. The cell growth in the incubator was continued for another 2 days. […] The concentration of cytotoxicity 50% (CC50) was determined from the dose-response curve. […] The changes in cell morphology were detected using light microscopy (EVOSfl; ThermoFisher Scientific, Waltham, MA, United States).
(§3) The following equation was used to calculate tumor specificity (TS): TS = average CC50 toward the normal cells (HGF + HPLF + HPC)/average CC50 toward the tumor cell lines (Ca9-22 + HSC-2 + HSC-3 + HSC-4), as indicated by D/B (Table 1). To compare the sensitivity of the cancer cells (Ca9-22) with that of the normal cells (HGF), being generated from the same tissue, the equation TS = CC50 against HGF/CC50 against Ca9-22 was used (see C/A in Table 1).

[9] = tested on: Ca9-22 (human gingival squamous carcinoma cell line); assay: MTT cytotoxicity assay, Ca9-22; conditions: for CC50: Homo sapiens, Ca9-22, 48 h, read-out: CC50 Ca9-22 (A)
Experimental: as §2, §3

Ca9-22 cells = assay: Cell cycle analysis (PI staining, cell sorter) and cell morphology; type: cell-based, human; conditions: Ca9-22, 20 h, 1 µM
Experimental: The changes in cell morphology were detected using light microscopy (EVOSfl; ThermoFisher Scientific, Waltham, MA, United States).
Ca9-22 cells (3 × 10^4/mL, 10 mL) were added to a 10-cm dish and allowed to fully attach to the dish over the course of 48 h of incubation. […] These cells were mixed and then washed once with PBS (−). Both cell groups were fixed for 1 h on ice with 1% paraformaldehyde. Fixed cells were then washed twice with PBS (−) and treated with 400 μL of 200 μg/mL RNase A (which was preheated for 10 min at 100°C to inactivate DNase) to degrade RNA. The cells were then washed twice with PBS (−) and stained for 15 min with 0.01% propidium iodide (PI) in the presence of 0.01% NP-40 in PBS (−) to prevent cell aggregation. After filtering through Falcon® cell strainers (nylon mesh, pore size: 40 μm) (Corning, NY, United States) to remove aggregated cells, PI-stained cells were then subjected to cell sorting using (SH800 Series; SONY Imaging Products and Solutions Inc., Kanagawa, Japan), and finally analyzed with the Cell Sorter Software version 2.1.2.

## O=c1[nH]cc(F)c(=O)[nH]1 [5-FU, 5-fluorouracil]
[1]
  CC50 at 2 days: > 1000 µM
[2]; MTT, 2 days exposure
  CC50: 292 µM
[3]
  CC50 at 2 days: > 1000 µM
[4]; MTT, 2 days exposure
  CC50: 182 µM
[5]; MTT, 2 days exposure
  CC50: > 1000 µM
[6]
  CC50 at 2 days: > 1000 µM
[7]
  CC50 at 2 days: > 1000 µM
[8]
  CC50: > 386 µM
  Type of growth inhibition (cytotoxic or cytostatic) from dose-response curve: Cytostatic
[9]
  CC50: 69.4 µM

## Cc1c2oc3c(C)ccc(C(=O)N[C@@H]4C(=O)N[C@H](C(C)C)C(=O)N5CCC[C@H]5C(=O)N(C)CC(=O)N(C)[C@@H](C(C)C)C(=O)O[C@@H]4C)c3nc-2c(C(=O)N[C@@H]2C(=O)N[C@H](C(C)C)C(=O)N3CCC[C@H]3C(=O)N(C)CC(=O)N(C)[C@@H](C(C)C)C(=O)O[C@@H]2C)c(N)c1=O [Act.D, actinomycin D] (I: T[dV]P[Sar][NMeV] / II: T[dV]P[Sar][NMeV]; ester I:1-I:C, II:1-II:C; linker I:N-II:N via Actinocin(9to1))
Ca9-22 cells
  Morphological change of cells: cell shrinkage

## COc1cccc2c1C(=O)c1c(O)c3c(c(O)c1C2=O)C[C@@](O)(C(=O)CO)C[C@@H]3O[C@H]1C[C@H](N)[C@H](O)[C@H](C)O1 [Doxorubicin, doxorubicin]
[1]
  CC50 at 2 days: > 10 µM
[2]; MTT, 2 days exposure
  CC50: 0.09 µM
[3]
  CC50 at 2 days: > 10 µM
[4]; MTT, 2 days exposure
  CC50: < 0.078 µM
[5]; MTT, 2 days exposure
  CC50: 0.16 µM
[6]
  CC50 at 2 days: > 10 µM
[7]
  CC50 at 2 days: > 10 µM
[8]
  CC50: < 0.13 µM
  Type of growth inhibition (cytotoxic or cytostatic) from dose-response curve: Cytotoxic
[9]
  CC50: 0.18 µM

## N[C@@H](Cc1ccc(N(CCCl)CCCl)cc1)C(=O)O [Melphalan, melphalan]
[1]
  CC50 at 2 days: 180 µM
[2]
  CC50: 11 µM
[3]
  CC50 at 2 days: 159 µM
[4]
  CC50: 9.9 µM
[5]
  CC50: 14.1 µM
[6]
  CC50 at 2 days: > 180 µM
[7]
  CC50 at 2 days: > 200 µM
[8]
  CC50: 17.8 µM
  Type of growth inhibition (cytotoxic or cytostatic) from dose-response curve: Cytotoxic
[9]; CC50 HGF / CC50 Ca9-22
  TS (tumor selectivity) C/A: 5.0
[9]
  CC50: 36.3 µM
